ChEMBL document CHEMBL4513160, “CO-ADD screening of MMV (CH) - Small Polar Library”
Converted amounts (≈) assume the structure as drawn.

Columns and labels:
Acinetobacter baumannii = test: microbe, parasite or virus in culture; conditions: ATCC 19606, 18 h, ASSAY_TEST Inhibition of Bacterial Growth, detection method Absorption (OD600), MEDIA CAMHB, plate type 384well, NBS, CORNING #3640
Description: Antibacterial activity against Acinetobacter baumannii ATCC 19606 (CO-ADD:GN_034); MIC in CAMBH media using NBS plates, by OD600

Pseudomonas aeruginosa [1] = test: microbe, parasite or virus in culture; conditions: ATCC 27853, 18 h, ASSAY_TEST Inhibition of Bacterial Growth, detection method Absorption (OD600), MEDIA CAMHB, plate type 384well, NBS, CORNING #3640
Description: Antibacterial activity against Pseudomonas aeruginosa ATCC 27853 (CO-ADD:GN_042); MIC in CAMBH media using NBS plates, by OD(600)

Pseudomonas aeruginosa [2] = test: Antibacterial activity against Pseudomonas aeruginosa PAO397 [PAO1 d(mexAB-oprM) d(mexCD-oprJ) d(mexEF-oprN) d(mexJKL) d(mexXY) d(opmH)] (CO-ADD:GN_211); MIC in CAMBH media using NBS plates, by OD(600); format: functional; conditions: ASSAY_TEST Inhibition of Bacterial Growth, detection method Absorption (OD600), MEDIA CAMHB, plate type 384well, CORNING #3640, time 18 hr

CC(C)C(=O)c1cnccc1N
MIC (Acinetobacter baumannii): > 300 µM | MIC (Pseudomonas aeruginosa [1]): > 300 µM | MIC (Pseudomonas aeruginosa [2]): > 300 µM

CN(C)C(=O)CCNc1ccnc2ccc(Cl)cc12
MIC (Acinetobacter baumannii): > 300 µM | MIC (Pseudomonas aeruginosa [1]): > 300 µM | MIC (Pseudomonas aeruginosa [2]): > 300 µM

Cc1cccc(OCCc2noc(C3CNC3)n2)c1
MIC (Acinetobacter baumannii): > 300 µM | MIC (Pseudomonas aeruginosa [1]): > 300 µM | MIC (Pseudomonas aeruginosa [2]): 200 µM (≈ 51.9 µg/mL)

NCC(=O)N1CCCC(CCc2ccc(F)c(F)c2)C1 (stereo unspecified)
MIC (Acinetobacter baumannii): > 300 µM | MIC (Pseudomonas aeruginosa [1]): > 300 µM | MIC (Pseudomonas aeruginosa [2]): > 300 µM

Cc1cc(NC(C)CO)nc2ccccc12 (stereo unspecified)
MIC (Acinetobacter baumannii): > 300 µM | MIC (Pseudomonas aeruginosa [1]): > 300 µM | MIC (Pseudomonas aeruginosa [2]): > 300 µM

NCCC(=O)N1CCCC(CCc2ccc(F)cc2)C1 (stereo unspecified)
MIC (Acinetobacter baumannii): > 300 µM | MIC (Pseudomonas aeruginosa [1]): > 300 µM | MIC (Pseudomonas aeruginosa [2]): > 300 µM

NCc1cnn(-c2ccc(Br)cc2)c1
MIC (Acinetobacter baumannii): > 300 µM | MIC (Pseudomonas aeruginosa [1]): > 300 µM | MIC (Pseudomonas aeruginosa [2]): > 300 µM

CN1CCCC1CCSc1nc(N)c(C#N)cc1C#N (stereo unspecified)
MIC (Acinetobacter baumannii): > 300 µM | MIC (Pseudomonas aeruginosa [1]): > 300 µM | MIC (Pseudomonas aeruginosa [2]): > 300 µM

CS(=O)(=O)N1CCSc2ccc(Cl)cc21
MIC (Acinetobacter baumannii): > 300 µM | MIC (Pseudomonas aeruginosa [1]): > 300 µM | MIC (Pseudomonas aeruginosa [2]): > 300 µM

CNC(=O)CCCNC(=O)Nc1nc2ccccc2s1
MIC (Acinetobacter baumannii): > 300 µM | MIC (Pseudomonas aeruginosa [1]): > 300 µM | MIC (Pseudomonas aeruginosa [2]): > 300 µM

Cc1cccc(C(=O)Nc2ncc(C)s2)n1
MIC (Acinetobacter baumannii): > 300 µM | MIC (Pseudomonas aeruginosa [1]): > 300 µM | MIC (Pseudomonas aeruginosa [2]): > 300 µM

O=C1c2ccccc2OCC1CN1CCOCC1 (stereo unspecified)
MIC (Acinetobacter baumannii): > 300 µM | MIC (Pseudomonas aeruginosa [1]): > 300 µM | MIC (Pseudomonas aeruginosa [2]): > 300 µM

NC(=O)Nc1cccc(C(=O)Nc2ccc(Cl)cn2)c1
MIC (Acinetobacter baumannii): > 300 µM | MIC (Pseudomonas aeruginosa [1]): > 300 µM | MIC (Pseudomonas aeruginosa [2]): > 300 µM

c1cn2c(n1)COCC2
MIC (Acinetobacter baumannii): > 300 µM | MIC (Pseudomonas aeruginosa [1]): > 300 µM | MIC (Pseudomonas aeruginosa [2]): > 300 µM

OCCNCCNCc1ccc(-c2ccccc2Cl)o1
MIC (Acinetobacter baumannii): > 300 µM | MIC (Pseudomonas aeruginosa [1]): > 300 µM | MIC (Pseudomonas aeruginosa [2]): > 300 µM

Cc1cccc(OCC(O)Cn2ccnc2C)c1 (stereo unspecified)
MIC (Acinetobacter baumannii): > 300 µM | MIC (Pseudomonas aeruginosa [1]): > 300 µM | MIC (Pseudomonas aeruginosa [2]): > 300 µM

NS(=O)(=O)NCC1CCN(c2cccc(Br)c2)C1 (stereo unspecified)
MIC (Acinetobacter baumannii): > 300 µM | MIC (Pseudomonas aeruginosa [1]): > 300 µM | MIC (Pseudomonas aeruginosa [2]): > 300 µM

OCCNCCNCc1ccc(-c2cccc(Cl)c2)o1
MIC (Acinetobacter baumannii): > 300 µM | MIC (Pseudomonas aeruginosa [1]): > 300 µM | MIC (Pseudomonas aeruginosa [2]): > 300 µM

O=C(c1c(O)cccc1F)N1CCc2cnccc21
MIC (Acinetobacter baumannii): > 300 µM | MIC (Pseudomonas aeruginosa [1]): > 300 µM | MIC (Pseudomonas aeruginosa [2]): > 300 µM

Fc1cccnc1OC1CCNCC1
MIC (Acinetobacter baumannii): > 300 µM | MIC (Pseudomonas aeruginosa [1]): > 300 µM | MIC (Pseudomonas aeruginosa [2]): > 300 µM

COCCOc1ccc(CNC(=O)c2ccoc2)cn1
MIC (Acinetobacter baumannii): > 300 µM | MIC (Pseudomonas aeruginosa [1]): 60 µM (≈ 16.6 µg/mL) | MIC (Pseudomonas aeruginosa [2]): > 300 µM

C[C@@]1(N)C[C@H]1c1ccccc1
MIC (Acinetobacter baumannii): > 300 µM | MIC (Pseudomonas aeruginosa [1]): > 300 µM | MIC (Pseudomonas aeruginosa [2]): 200 µM (≈ 29.4 µg/mL)

COc1cccc(CNCc2ccccn2)c1
MIC (Acinetobacter baumannii): > 300 µM | MIC (Pseudomonas aeruginosa [1]): > 300 µM | MIC (Pseudomonas aeruginosa [2]): > 300 µM

COc1cc(F)cc(NCC(=O)NCc2ccco2)c1
MIC (Acinetobacter baumannii): > 300 µM | MIC (Pseudomonas aeruginosa [1]): > 300 µM | MIC (Pseudomonas aeruginosa [2]): > 300 µM

CCCSc1ccc(NC(=O)NCCN)cc1
MIC (Acinetobacter baumannii): > 300 µM | MIC (Pseudomonas aeruginosa [1]): > 300 µM | MIC (Pseudomonas aeruginosa [2]): > 300 µM

COc1ccc(F)c(N2CCNCC2)c1
MIC (Acinetobacter baumannii): > 300 µM | MIC (Pseudomonas aeruginosa [1]): > 300 µM | MIC (Pseudomonas aeruginosa [2]): > 300 µM

COCC(O)CNc1c(C)c(C)nc2ccccc12 (stereo unspecified)
MIC (Acinetobacter baumannii): > 300 µM | MIC (Pseudomonas aeruginosa [1]): > 300 µM | MIC (Pseudomonas aeruginosa [2]): > 300 µM

NCC1CCN(Cc2cccc(F)c2)CC1
MIC (Acinetobacter baumannii): > 300 µM | MIC (Pseudomonas aeruginosa [1]): > 300 µM | MIC (Pseudomonas aeruginosa [2]): > 300 µM

CC(N)c1nc(-c2ccc(Br)cc2)c[nH]1 (stereo unspecified)
MIC (Acinetobacter baumannii): > 300 µM | MIC (Pseudomonas aeruginosa [1]): > 300 µM | MIC (Pseudomonas aeruginosa [2]): > 300 µM

COc1ccc(C2NC(=O)c3cccnc3N2)cc1F (stereo unspecified)
MIC (Acinetobacter baumannii): > 300 µM | MIC (Pseudomonas aeruginosa [1]): > 300 µM | MIC (Pseudomonas aeruginosa [2]): > 300 µM

CCC(C#N)NC(=O)c1cnc(OC(C)C)c(Cl)c1 (stereo unspecified)
MIC (Acinetobacter baumannii): > 300 µM | MIC (Pseudomonas aeruginosa [1]): > 300 µM | MIC (Pseudomonas aeruginosa [2]): > 300 µM

OCc1ccncc1NCc1coc2ccccc12
MIC (Acinetobacter baumannii): > 300 µM | MIC (Pseudomonas aeruginosa [1]): > 300 µM | MIC (Pseudomonas aeruginosa [2]): > 300 µM

CCc1nnc(NC(=O)c2cc(OC)ccn2)s1
MIC (Acinetobacter baumannii): > 300 µM | MIC (Pseudomonas aeruginosa [1]): > 300 µM | MIC (Pseudomonas aeruginosa [2]): > 300 µM

Cc1ccc(C(N)c2ccccn2)cc1 (stereo unspecified)
MIC (Acinetobacter baumannii): > 300 µM | MIC (Pseudomonas aeruginosa [1]): > 300 µM | MIC (Pseudomonas aeruginosa [2]): > 300 µM

CC(Nc1ccc(C#N)cn1)c1ccc2c(c1)OCO2 (stereo unspecified)
MIC (Acinetobacter baumannii): > 300 µM | MIC (Pseudomonas aeruginosa [1]): > 300 µM | MIC (Pseudomonas aeruginosa [2]): > 300 µM

COc1ccc(CNCCCSc2nnnn2C)cc1
MIC (Acinetobacter baumannii): > 300 µM | MIC (Pseudomonas aeruginosa [1]): > 300 µM | MIC (Pseudomonas aeruginosa [2]): > 300 µM

CNC(CO)c1cccc(Cl)c1Cl (stereo unspecified)
MIC (Acinetobacter baumannii): > 300 µM | MIC (Pseudomonas aeruginosa [1]): > 300 µM | MIC (Pseudomonas aeruginosa [2]): > 300 µM

O=C(NCc1cccs1)c1cnsn1
MIC (Acinetobacter baumannii): > 300 µM | MIC (Pseudomonas aeruginosa [1]): > 300 µM | MIC (Pseudomonas aeruginosa [2]): > 300 µM

Cc1ccc(C)c2c(=O)cc(CN3CCC(N)C3)[nH]c12 (stereo unspecified)
MIC (Acinetobacter baumannii): > 300 µM | MIC (Pseudomonas aeruginosa [1]): > 300 µM | MIC (Pseudomonas aeruginosa [2]): > 300 µM

COC(CN)CC(C)C (stereo unspecified)
MIC (Acinetobacter baumannii): > 300 µM | MIC (Pseudomonas aeruginosa [1]): > 300 µM | MIC (Pseudomonas aeruginosa [2]): > 300 µM

CN(C(=O)CN)c1ccc(-c2ccccc2)cc1
MIC (Acinetobacter baumannii): > 300 µM | MIC (Pseudomonas aeruginosa [1]): > 300 µM | MIC (Pseudomonas aeruginosa [2]): > 300 µM

Cc1cscc1C(=O)Nc1ncnn1C
MIC (Acinetobacter baumannii): > 300 µM | MIC (Pseudomonas aeruginosa [1]): > 300 µM | MIC (Pseudomonas aeruginosa [2]): > 300 µM
